Test results taken from patent publication US4774232A, “Bile-substituting method of treatment for the promotion of fat digestion” (Chinoin Gyogyszer Es Vegyeszeti Termak Ek Gyara Rt, priority 1985, dated 1988).

Test system: bile-deficient rats
Assay: Absorption of 3H-stearic acid with oral DIMEB in bile-deficient rats (Example 11)
Assay type: in vivo, CFY female rats
Settings: for Radioactivity in 10 ml of blood: 23.5 mg 3H-stearic acid + 60 mg DIMEB oral
Method: The substitution by DIMEB of the bile in bile-deficiency was studied in rats after ligating the bile duct.
After being starved for 24 hours, the animals (CFY female rats with an average body weight of 150 g) were subjected to a bile duct-ligation under nembutal anaesthesia. The absorption was investigated in the 48th hour after starving the animals overnight. The animals were starved in the course of the examination, too, but received water ad libitum. One group (consisting of 4 animals) received 22.2 mg of ^3 H-stearic acid (specific radioactivity: 92.5 kBq/mg), whereas the other group (consisting of 4 animals) was administered 23.5 mg of ^3 H-stearic acid and 60 mg of DIMEB in 2 ml of distilled water. The substances were suspended ultrasonically in the distilled water. Thereafter, the radioactivity level of the blood was measured at various intervals by using the liquid scintillation method (Table XII).

Compound: COC[C@H]1O[C@@H]2O[C@H]3[C@H](O)[C@@H](OC)[C@@H](O[C@H]4[C@H](O)[C@@H](OC)[C@@H](O[C@H]5[C@H](O)[C@@H](OC)[C@@H](O[C@H]6[C@H](O)[C@@H](OC)[C@@H](O[C@H]7[C@H](O)[C@@H](OC)[C@@H](O[C@H]8[C@H](O)[C@@H](OC)[C@@H](O[C@H]1[C@H](O)[C@H]2OC)O[C@@H]8COC)O[C@@H]7COC)O[C@@H]6COC)O[C@@H]5COC)O[C@@H]4COC)O[C@@H]3COC [DIMEB, heptakis(2,6-di-O-methyl)-β-cyclodextrin]
- Radioactivity in 10 ml of blood (1 h, animal 5): 1.18 percentage
- Radioactivity in 10 ml of blood (1 h, animal 6): 1.41 percentage
- Radioactivity in 10 ml of blood (1 h, animal 7): 1.66 percentage
- Radioactivity in 10 ml of blood (1 h, animal 8): 0.50 percentage
- Radioactivity in 10 ml of blood (1 h, mean): 1.19 percentage
- Radioactivity in 10 ml of blood (2 h, animal 5): 1.46 percentage
- Radioactivity in 10 ml of blood (2 h, animal 6): 1.52 percentage
- Radioactivity in 10 ml of blood (2 h, animal 7): 1.52 percentage
- Radioactivity in 10 ml of blood (2 h, animal 8): 0.64 percentage
- Radioactivity in 10 ml of blood (2 h, mean): 1.28 percentage
- Radioactivity in 10 ml of blood (3 h, animal 5): 1.29 percentage
- Radioactivity in 10 ml of blood (3 h, animal 6): 1.63 percentage
- Radioactivity in 10 ml of blood (3 h, animal 7): 1.37 percentage
- Radioactivity in 10 ml of blood (3 h, animal 8): 0.61 percentage
- Radioactivity in 10 ml of blood (3 h, mean): 1.22 percentage
- Radioactivity in 10 ml of blood (4 h, animal 5): 1.42 percentage
- Radioactivity in 10 ml of blood (4 h, animal 6): 1.67 percentage
- Radioactivity in 10 ml of blood (4 h, animal 7): 1.56 percentage
- Radioactivity in 10 ml of blood (4 h, animal 8): 0.60 percentage
- Radioactivity in 10 ml of blood (4 h, mean): 1.31 percentage
- Radioactivity in 10 ml of blood (5 h, animal 5): 1.39 percentage
- Radioactivity in 10 ml of blood (5 h, animal 6): 1.73 percentage
- Radioactivity in 10 ml of blood (5 h, animal 7): 1.54 percentage
- Radioactivity in 10 ml of blood (5 h, animal 8): 0.69 percentage
- Radioactivity in 10 ml of blood (5 h, mean): 1.34 percentage
- Radioactivity in 10 ml of blood (6 h, animal 5): 1.41 percentage
- Radioactivity in 10 ml of blood (6 h, animal 6): 1.92 percentage
- Radioactivity in 10 ml of blood (6 h, animal 7): 1.76 percentage
- Radioactivity in 10 ml of blood (6 h, animal 8): 0.73 percentage
- Radioactivity in 10 ml of blood (6 h, mean): 1.45 percentage
- Radioactivity in 10 ml of blood (8 h, animal 5): 1.43 percentage
- Radioactivity in 10 ml of blood (8 h, animal 6): 1.90 percentage
- Radioactivity in 10 ml of blood (8 h, animal 7): 1.85 percentage
- Radioactivity in 10 ml of blood (8 h, animal 8): 0.72 percentage
- Radioactivity in 10 ml of blood (8 h, mean): 1.47 percentage
- Radioactivity in 10 ml of blood (10 h, animal 5): 1.57 percentage
- Radioactivity in 10 ml of blood (10 h, animal 6): 1.56 percentage
- Radioactivity in 10 ml of blood (10 h, animal 7): 1.45 percentage
- Radioactivity in 10 ml of blood (10 h, animal 8): 0.89 percentage
- Radioactivity in 10 ml of blood (10 h, mean): 1.37 percentage
- Radioactivity in 10 ml of blood (24 h, animal 5): 1.50 percentage
- Radioactivity in 10 ml of blood (24 h, animal 6): 1.94 percentage
- Radioactivity in 10 ml of blood (24 h, animal 7): 1.59 percentage
- Radioactivity in 10 ml of blood (24 h, animal 8): 1.95 percentage
- Radioactivity in 10 ml of blood (24 h, mean): 1.74 percentage
- Blood level relative to animals treated with stearic acid alone (24th hour): 2 times
- Blood radioactivity relative to animals treated with stearic acid alone (time not given): 4.4 times
